Like-named read-outs stand apart in the source and are kept apart here.
Assays:
[1] = Nonspecific zosuquidar adsorption to glass HPLC vials; assay type: physicochemical; details: for nonspecific zosuquidar adsorption: 25% methanol in HEPES HBSS pH 7.4; for zosuquidar concentration found (theoretical 250 nM): HEPES HBSS pH 7.4 in glass vial
Experimental: Generally, when zosuquidar was diluted in aqueous solutions, less zosuquidar than expected was present according to HPLC-FL quantitation, when compared to the corresponding dilutions in water–organic solvent mixtures. […] These were further diluted in methanol or DMSO to 100 µM. For adsorption experiments, solutions of 0.5–49.5% v/v methanol or DMSO in HEPES HBSS pH 7.4 were prepared, along with HEPES HBSS pH 7.4 supplemented with 0.10, 1.0, 2.5, 5.0, 10, or 50 µM polysorbate 20 or 0.05% bovine serum albumin, as well as 10 mM MES HBSS pH 6.5, 10 mM ammonium acetate pH 4.5, 19 mM maleic acid buffer pH 6.5, and FaSSIF-V2. […] The vials were capped and vortexed for 1 min and equilibrated at ambient temperature for approximately 24 h before HPLC-FL analysis. The peak area of the samples was normalised to the peak area of control samples, which were considered to elicit 0% adsorption. […] Both vials were equilibrated at room temperature for at least 24 h. […] The solutions in both vials were then analysed directly by HPLC-FL.

[2] = Pharmacokinetic study in Sprague Dawley rats (oral gavage); assay type: in vivo; details: for AUC(0-t) / Cmax / bioavailability / half-life: male, Sprague-Dawley, rat, plasma, po; for AUC(0-t): Zosuquidar AUC0–6h; for Cmax: Zosuquidar Cmax; for bioavailability: Zosuquidar bioavailability; for half-life: Zosuquidar t½
Experimental: The study was conducted according to the European Convention for the Protection of Vertebrate Animals used for Experimental and other Scientific Purposes (ETS no. 123) and Belgian law controlling the experiments on animals (Royal Decree of 29 May 2013 for the protection of laboratory animals). Animals were allowed minimum five days to acclimatise upon arrival from the supplier, and they were housed in polysulphone cages (58 × 52 × 20 cm) in groups of six provided with wooden sticks for enrichment. Animals had free access to Safe 04 Maintenance Diet (Safe, Rosenberg, Germany) and water during acclimatisation and during the study.
Male Sprague Dawley rats (Charles River, Dortmund, Germany) weighing 293–358 g were randomly assigned into six groups of six animals. Formulations were prepared as clear solutions in 40% v/v ethanol–water and 10 mL/kg was administered to each animal by oral gavage. […] Plasma samples were taken by tail vein puncture with a needle followed by collection in 32–64 µL micro haematocrit tubes (Vitrex Medical, Herlev, Denmark) at times 15, 30, and 45 min and 1, 2, 3, 4, and 6 h. Samples were centrifuged, and plasma was transferred into 10 µL end-to-end pipettes (Vitrex Medical, Herlev, Denmark) and immediately frozen at −80 °C until bioanalysis. Immediately after the study, animals were euthanised according to the principles of euthanasia stated in the AVMA Guidelines for the Euthanasia of Animals (American Veterinary Medical Association, 2020). Plasma samples were analysed by a previously described qualified LC-MS/MS method.
Pharmacokinetic parameters were calculated individually for each animal subject and pooled for statistical analysis. The plasma concentration at 15 min (C15min) was reported as an average of the plasma concentration of the six animals in each group. […] Elimination rate constants (ke) were calculated by linear regression of the linear part of the ln(plasma concentration) versus time profiles, and plasma half-life (t½) was calculated from ke:(3) t½=ln (2)/ke

[3] = HEPES HBSS pH 7.4 + 5 or 10 µM polysorbate 20, 1% methanol, or 1% DMSO
Experimental: Samples were shaken on a vertical rotator (10 rpm, PTR-60, Grant Instruments, Cambridge, UK) for approximately 72 h at ambient temperature. The suspensions were then centrifuged at ambient temperature (15,000 RCF, 10 min, Multifuge X1R, Thermo Fisher Scientific, Boston, MA, USA), and a sample of the supernatant was transferred and diluted 1:1 with mobile phase in a 2 mL glass HPLC vial and analysed by fluorescence-coupled HPLC (HPLC-FL).

[4] = cited from earlier work
P-gp = P-gp (Homo sapiens, UniProt P08183); test: Calcein-AM assay in MDCKII-MDR1 cells; assay type: cell-based; set-up: Piet Borst (Netherlands Cancer Institute); host or cells: MDCKII
P-gp, sequence (P08183 whole entry): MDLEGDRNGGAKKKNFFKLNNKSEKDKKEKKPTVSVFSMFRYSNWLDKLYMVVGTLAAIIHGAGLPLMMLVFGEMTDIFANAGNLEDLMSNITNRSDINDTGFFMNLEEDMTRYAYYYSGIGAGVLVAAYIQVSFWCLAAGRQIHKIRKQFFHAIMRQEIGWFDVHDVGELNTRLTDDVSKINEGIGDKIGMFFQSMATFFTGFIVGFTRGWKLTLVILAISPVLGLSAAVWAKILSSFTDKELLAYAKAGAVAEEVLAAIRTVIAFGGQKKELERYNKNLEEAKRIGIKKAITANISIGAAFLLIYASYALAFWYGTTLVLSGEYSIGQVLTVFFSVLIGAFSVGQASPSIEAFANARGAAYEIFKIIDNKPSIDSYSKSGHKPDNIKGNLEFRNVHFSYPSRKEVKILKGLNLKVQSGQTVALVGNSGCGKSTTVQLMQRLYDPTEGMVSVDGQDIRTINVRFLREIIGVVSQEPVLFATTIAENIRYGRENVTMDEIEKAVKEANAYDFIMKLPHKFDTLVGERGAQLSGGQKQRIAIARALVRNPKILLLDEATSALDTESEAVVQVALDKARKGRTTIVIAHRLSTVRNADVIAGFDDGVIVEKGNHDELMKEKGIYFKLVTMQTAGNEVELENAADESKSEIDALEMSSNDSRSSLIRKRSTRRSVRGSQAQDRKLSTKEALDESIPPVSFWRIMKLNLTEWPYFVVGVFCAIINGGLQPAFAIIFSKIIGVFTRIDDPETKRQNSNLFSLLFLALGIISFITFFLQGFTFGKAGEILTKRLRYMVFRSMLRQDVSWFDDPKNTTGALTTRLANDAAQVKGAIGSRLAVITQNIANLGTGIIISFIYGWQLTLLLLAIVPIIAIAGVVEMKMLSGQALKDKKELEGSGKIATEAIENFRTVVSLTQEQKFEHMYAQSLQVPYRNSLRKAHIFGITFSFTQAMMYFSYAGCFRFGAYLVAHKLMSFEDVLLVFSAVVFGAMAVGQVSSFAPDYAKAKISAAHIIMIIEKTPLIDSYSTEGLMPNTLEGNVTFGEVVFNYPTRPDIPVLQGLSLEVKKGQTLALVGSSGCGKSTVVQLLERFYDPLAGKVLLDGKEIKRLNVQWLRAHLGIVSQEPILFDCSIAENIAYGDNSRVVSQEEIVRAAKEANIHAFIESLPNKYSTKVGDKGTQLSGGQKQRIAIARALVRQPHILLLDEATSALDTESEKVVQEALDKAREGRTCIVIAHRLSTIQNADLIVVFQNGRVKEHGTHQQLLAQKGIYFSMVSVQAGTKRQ
Experimental: Before the experiment, growth medium was removed by vacuum suction (Vacusip, Integra Biosciences, NH, USA), 100 µL HEPES HBSS pH 7.4 was added to each well with a multichannel pipette, and the cells were incubated on a Talboys 1000 MP incubating microplate shaker (Troemner, NJ, USA, 220 rpm, 37 °C).
A total of 170 µL of the test solutions could then be transferred from the 96-well plate to the cell-containing plate at the start of preincubation. […] Wells containing HEPES HBSS pH 7.4 only served as a positive control. The cells were preincubated with test solutions (serial and spike) for 10 min on a microplate shaker (37 °C, 220 rpm). To start the experiment, 30 µL 33.3 µM calcein-AM in HEPES HBSS pH 7.4 was added to each well with a multichannel pipette, and the plate was stirred for 1 min on a microplate shaker (37 °C, 220 rpm) before being transferred to a Fluostar Omega plate reader.
One column of wells was kept without cells to measure background fluorescence signals from the applied buffers and compounds.

[5] = 2 mg/kg, group D: zosuquidar 2.0 mg/kg + etoposide 20 mg/kg + 5.0% v/v polysorbate 20 oral
[6] = 6.3 mg/kg, group E: zosuquidar 6.3 mg/kg + etoposide 20 mg/kg + 5.0% v/v polysorbate 20 oral
[7] = 6.3 mg/kg, group F: zosuquidar 6.3 mg/kg + etoposide 20 mg/kg + 10% v/v polysorbate 20 oral
[8] = group G*: zosuquidar 2.0 mg/kg + etoposide 20 mg/kg oral
[9] = group H*: zosuquidar 6.3 mg/kg + etoposide 20 mg/kg oral

O[C@@H](COc1cccc2ncccc12)CN1CCN([C@@H]2c3ccccc3[C@@H]3[C@H](c4ccccc42)C3(F)F)CC1 [zosuquidar]
nonspecific zosuquidar adsorption ([1]; 500 nM zosuquidar): 2.19 ± 6.71%
zosuquidar adsorption ([1]; 500 nM zosuquidar, 50% DMSO in HEPES HBSS pH 7.4): −5.9 ± 1.1%
zosuquidar adsorption ([1]; 500 nM zosuquidar, FaSSIF-V2 pH 6.5): 13.6 ± 1.0%
zosuquidar adsorption ([1]; 500 nM zosuquidar, HEPES HBSS pH 7.4 + 0.5% methanol): 97.0 ± 0.6%
nonspecific zosuquidar adsorption ([1]; 0.75 µM zosuquidar): 6.83 ± 2.33%
nonspecific zosuquidar adsorption ([1]; 2.5 µM zosuquidar): 2.76 ± 0.22%
nonspecific zosuquidar adsorption ([1]; 7.5 µM zosuquidar): −0.10 ± 2.02%
nonspecific zosuquidar adsorption ([1]; 25 µM zosuquidar): 32.5 ± 0.7%
zosuquidar concentration found (theoretical 250 nM) ([1]; after transfer to a new vial): 38.1 ± 13.7 nM
zosuquidar concentration found (theoretical 250 nM) ([1]; without transfer): 282 ± 8 nM
Zosuquidar AUC0–6h ([2]; group B: zosuquidar 0.63 mg/kg + etoposide 20 mg/kg + 1.0% v/v polysorbate 20 oral): BLQ
Zosuquidar tmax, median [Q1; Q3] ([2]; group E: zosuquidar 6.3 mg/kg + etoposide 20 mg/kg + 5.0% v/v polysorbate 20 oral): 60 [56;120] min
AUC(0-t) [2, 5]: 18.9 ± 2.8 ng·h/mL
Cmax [2, 5]: 4.8 ± 0.5 ng/mL
bioavailability [2, 5]: 5.64 ± 0.83%
half-life [2, 5]: 3 ± 0.383 h
AUC(0-t) [2, 6]: 47 ± 3.7 ng·h/mL
AUC(0-t) [2, 7]: 56.8 ± 4.2 ng·h/mL
Cmax [2, 6]: 13.2 ± 1 ng/mL
Cmax [2, 7]: 16.6 ± 1.1 ng/mL
bioavailability [2, 6]: 4.45 ± 0.35%
bioavailability [2, 7]: 5.38 ± 0.4%
half-life [2, 6]: 2.53 ± 0.333 h
half-life [2, 7]: 2.45 ± 0.167 h
effect on solubility [3]: did not significantly affect
Zosuquidar AUC0–6h ([4]; group F*: zosuquidar 0.63 mg/kg + etoposide 20 mg/kg oral): BLQ
Zosuquidar AUC0–6h [4, 8]: 8.67 ± 0.77 ng·h/mL
Zosuquidar Cmax [4, 8]: 2.10 ± 0.27 ng/mL
Zosuquidar bioavailability [4, 8]: 2.58 ± 0.23%
Zosuquidar tmax, median [Q1; Q3] [4, 8]: 120 [45;135] min
Zosuquidar t½ [4, 8]: 3.62 ± 0.45 h
Zosuquidar AUC0–6h [4, 9]: 43.6 ± 5.4 ng·h/mL
Zosuquidar Cmax [4, 9]: 10.9 ± 1.2 ng/mL
Zosuquidar bioavailability [4, 9]: 4.12 ± 0.51%
Zosuquidar tmax, median [Q1; Q3] [4, 9]: 90 [45;120] min
Zosuquidar t½ [4, 9]: 2.68 ± 0.217 h
mean P-gp activity (P-gp; […] zosuquidar + 2.5 µM polysorbate 20, spike method): 61%
mean P-gp activity (P-gp; […] zosuquidar + 5 µM polysorbate 20, spike method): 46%
discrepancy of IC50, serial dilution vs spike method (P-gp; calcein-AM, zosuquidar alone): 60 fold

Source: PMC9865188 (Pharmaceutics, 2023)
